In patent US8394789B2, “(Dihydro)pyrrolo[2,1-α]isoquinolines” (MSD Oss B.V., priority 2008, dated 2013):

Legend:
human FSH receptor = biological target: T1, human FSH receptor (Homo sapiens, UniProt P23945); test: hFSHRago (CHO luc): agonistic activity at the human FSH receptor expressed in CHO cells, CRE-luciferase reporter; type: cell-based; conditions: CHO cells stably transfected with human FSH receptor and CRE/luciferase reporter; 4 hours of incubation
T1 construct: expressed in transfected cells
T1 sequence (P23945 18-695): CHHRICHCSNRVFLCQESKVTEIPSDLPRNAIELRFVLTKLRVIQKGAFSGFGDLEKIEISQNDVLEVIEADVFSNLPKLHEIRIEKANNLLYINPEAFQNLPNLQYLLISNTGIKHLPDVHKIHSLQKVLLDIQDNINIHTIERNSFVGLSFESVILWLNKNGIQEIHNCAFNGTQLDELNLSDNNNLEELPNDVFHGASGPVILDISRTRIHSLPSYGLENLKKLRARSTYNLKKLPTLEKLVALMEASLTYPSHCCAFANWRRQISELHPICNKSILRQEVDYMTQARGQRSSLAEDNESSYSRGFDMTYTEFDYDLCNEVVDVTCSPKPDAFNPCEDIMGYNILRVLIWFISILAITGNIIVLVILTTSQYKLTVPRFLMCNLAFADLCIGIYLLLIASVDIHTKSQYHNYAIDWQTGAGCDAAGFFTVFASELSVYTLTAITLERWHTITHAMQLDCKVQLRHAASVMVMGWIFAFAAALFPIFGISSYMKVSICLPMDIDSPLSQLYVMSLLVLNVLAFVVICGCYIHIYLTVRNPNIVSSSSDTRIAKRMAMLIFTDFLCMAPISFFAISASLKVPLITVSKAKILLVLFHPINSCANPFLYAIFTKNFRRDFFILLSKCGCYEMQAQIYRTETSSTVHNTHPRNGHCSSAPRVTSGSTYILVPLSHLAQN

Row | Structure (SMILES) | melting point | EC50 (human FSH receptor)
1 | COc1cc2c(cc1OC(C)C)-c1c(-c3cccs3)cc(C(=O)N3C[C@H]4C[C@@H](NC(C)=O)C[C@H]4C3)n1CC2 [Example 25, N-[-2-(9-isopropoxy-8-methoxy-1-thiophen-2-yl-5,6-dihydro-pyrrolo[2,1-α]isoquinoline-3-carbonyl)-octahydro-cyclopenta[c]pyrrol-5-endo-yl]-acetamide] | 106 to 112 °C | 45.4 nM
2 | COc1cc2c(cc1OC(C)C)-c1c(-c3cccs3)cc(C(=O)N(C)C(C)(C)CO)n1CC2 [Example 30, 9-Isopropoxy-8-methoxy-1-thiophen-2-yl-5,6-dihydro-pyrrolo[2,1-α]isoquinoline-3-carboxylic acid (2-hydroxy-1,1-dimethyl-ethyl)-methyl-amide] | 150 to 152 °C | 1 nM
3 | COc1cc2c(cc1Oc1cccc(F)c1)-c1c(-c3cccs3)cc(C(=O)N(C)C(C)(C)C)n1CC2 [Example 75, 9-(3-Fluoro-phenoxy)-8-methoxy-1-thiophen-2-yl-5,6-dihydro-pyrrolo[2,1-α]isoquinoline-3-carboxylic acid tert-butyl-methyl-amide] | 158 to 159 °C | 16.3 nM
4 | COc1cc2c(cc1Oc1ncccn1)-c1c(-c3cccs3)cc(C(=O)N(C)C(C)(C)C)n1CC2 [Example 76, N-tert-butyl-8-methoxy-N-methyl-9-(pyrimidin-2-yloxy)-1-(thiophen-2-yl)-5,6-dihydro-pyrrolo[2,1-α]isoquinoline-3-carboxamide] | 164 to 165 °C | 18.9 nM
5 | COc1cc2c(cc1OC(C)C)-c1c(-c3cccs3)cc(C(=O)N3CCCN(C(C)=O)CCC3)n1CC2 [Example 16, 1-[5-(9-Isopropoxy-8-methoxy-1-thiophen-2-yl-5,6-dihydro-pyrrolo[2,1-α]isoquinoline-3-carbonyl)-[1,5]diazocan-1-yl]-ethanone] | 153 to 155 °C | 5 nM
6 | COc1cc2c(cc1CCC(C)(C)O)-c1c(-c3cccs3)cc(C(=O)N(C)C(C)(C)C)n1CC2 [Example 92, 9-(3-Hydroxy-3-methyl-butyl)-8-methoxy-1-thiophen-2-yl-5,6-dihydro-pyrrolo[2,1-α]isoquinoline-3-carboxylic acid tert-butyl-methyl-amide] | 153 to 154 °C | 6 nM
7 | COc1cc2c(cc1NC(=O)c1cccnc1)-c1c(-c3cccs3)cc(C(=O)N(C)C(C)(C)C)n1CC2 [Example 102, 8-Methoxy-9-[(pyridine-3-carbonyl)-amino]-1-thiophen-2-yl-5,6-dihydro-pyrrolo[2,1-α]isoquinoline-3-carboxylic acid tert-butyl-methyl-amide] | 223 to 224 °C | 13 nM
8 | COc1cc2c(cc1OC(C)C)-c1c(-c3cccs3)cc(C(=O)N3CC4CC(C3)c3cccc(=O)n3C4)n1CC2 (stereo not drawn) [Example 18, 3-(9-Isopropoxy-8-methoxy-1-thiophen-2-yl-5,6-dihydro-pyrrolo[2,1-α]isoquinoline-3-carbonyl)-1,2,3,4,5,6-hexahydro-1,5-methano-pyrido[1,2-α][1,5]diazocin-8-one] | 260 °C | 37.3 nM
9 | COc1cc2c(cc1C(=O)Nc1nncs1)-c1c(-c3cccs3)cc(C(=O)N(C)C(C)(C)C)n1CC2 [Example 123, 8-Methoxy-1-thiophen-2-yl-5,6-dihydro-pyrrolo[2,1-α]isoquinoline-3,9-dicarboxylic acid 3-(tert-butyl-methyl-amide) 9-[1,3,4]thiadiazol-2-ylamide] | 149 to 152 °C | 1 nM
10 | COc1cc2c(cc1OC(C)C)-c1c(-c3cccs3)cc(C(=O)N3CC4CC(C3)C3CCCC(=O)N3C4)n1CC2 (stereo not drawn) [Example 19, 3-(9-Isopropoxy-8-methoxy-1-thiophen-2-yl-5,6-dihydro-pyrrolo[2,1-α]isoquinoline-3-carbonyl)-decahydro-1,5-methano-pyrido[1,2-α][1,5]diazocin-8-one] | 207 to 208 °C | 29.4 nM
11 | COc1cccc(Oc2cc3c(cc2OC)CCn2c(C(=O)N(C)C(C)(C)C)cc(-c4cccs4)c2-3)c1 [Example 74, N-tert-butyl-8-methoxy-9-(3-methoxyphenoxy)-N-methyl-1-(thiophen-2-yl)-5,6-dihydropyrrolo[2,1-α]isoquinoline-3-carboxamide] | 176 to 177 °C | 203 nM
12 | CCN(C(=O)c1cc(-c2ccsc2)c2n1CCc1cc(OC)c(OC)c(F)c1-2)C(C)C [Example 116, 10-Fluoro-8,9-dimethoxy-1-thiophen-3-yl-5,6-dihydro-pyrrolo[2,1-α]isoquinoline-3-carboxylic acid ethyl-isopropyl-amide] |  | 318 nM
13 | CCCCN1CCN(C(=O)c2cc(-c3cccs3)c3n2CCc2cc(OC)c(OCC(C)(C)O)cc2-3)CCC1=O [Example 14d, 4-Butyl-1-[9-(2-hydroxy-2-methyl-propoxy)-8-methoxy-1-thiophen-2-yl-5,6-dihydro-pyrrolo[2,1-α]isoquinoline-3-carbonyl]-[1,4]diazepan-5-one] |  | 1.5 nM
14 | COc1cc2c(cc1NC(=O)C(C)C)-c1c(-c3cccs3)cc(C(=O)N3CCCC3(C)C)n1CC2 [Example 62, N-[3-(2,2-Dimethyl-pyrrolidine-1-carbonyl)-8-methoxy-1-thiophen-2-yl-5,6-dihydro-pyrrolo[2,1-α]isoquinolin-9-yl]-isobutyramide] |  | 3.7 nM
15 | COc1cc2c(cc1OC(C)C)-c1c(-c3cccs3)cc(C(=O)N3CCCN(C(=O)C(O)C(F)(F)F)CC3)n1CC2 (stereo not drawn) [Example 4, 3,3,3-Trifluoro-2-hydroxy-1-[4-(9-isopropoxy-8-methoxy-1-thiophen-2-yl-5,6-dihydro-pyrrolo[2,1-α]isoquinoline-3-carbonyl)-[1,4]diazepan-1-yl]-propan-1-one] |  | 1.3 nM
